ChEMBL document CHEMBL1201862, “PubChem BioAssay data set” (2004)
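Dose response: 5 concentrations. Exposure: 48 h. Format: 96-well plates. Endpoint: linear interpolation; highest concentration if not reached. Abbreviation: GI50, concentration required for 50% inhibition of growth.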 Active and inactive are the calls of the source. Cut-off read from the data, not from the text of the source: active = GI50 up to about 1.1 µM and inactive = higher.

Legend:
Assay in all cases: NCI-60 cell line screen, 48 h
CAKI-1 = system: CAKI-1
HCT-116 = system: HCT-116
HL-60 = system: HL-60
Hs-578T = system: Hs-578T
IGROV-1 = system: IGROV-1
K562 = system: K562
MDA-MB-231 = system: MDA-MB-231
MDA-N = system: MDA-N
Malme-3M = system: Malme-3M
NCI-H226 = system: NCI-H226
NCI-H460 = system: NCI-H460
NCI-H522 = system: NCI-H522
OVCAR-3 = system: OVCAR-3
SF-268 = system: SF-268
SF-539 = system: SF-539
SK-MEL-2 = system: SK-MEL-2
SK-MEL-5 = system: SK-MEL-5
SNB-19 = system: SNB-19
ACHN = system: ACHN
HOP-92 = system: HOP-92

Measured: GI50

COc1ccc(/C=C/C(=O)CC(=O)/C=C/c2ccc(OC)cc2)cc1
inactive: CAKI-1 62.4 µM | HCT-116 15.3 µM | HL-60 25.6 µM | Hs-578T 36.4 µM | IGROV-1 > 100 µM | K562 32.7 µM | MDA-MB-231 51.4 µM | MDA-N 20.7 µM | Malme-3M 34.5 µM | NCI-H226 > 100 µM | NCI-H460 33 µM | NCI-H522 7.94 µM | OVCAR-3 23.1 µM | SF-268 46.3 µM | SF-539 30.3 µM | SK-MEL-2 > 100 µM | SK-MEL-5 67.6 µM | SNB-19 89.9 µM

C[C@]12CCC(=O)C=C1CC[C@@H]1[C@@H]2CC[C@]2(C)C(=O)/C(=C\c3ccccc3)C[C@@H]12
inactive: ACHN 33.3 µM | CAKI-1 43.5 µM | HCT-116 11.4 µM | HL-60 9.79 µM | HOP-92 23.2 µM | IGROV-1 51.3 µM | K562 > 100 µM | MDA-MB-231 > 50.8 µM | MDA-N 16 µM | Malme-3M 29.4 µM | NCI-H226 2.38 µM | NCI-H460 17.1 µM | OVCAR-3 22.1 µM | SF-539 21.6 µM | SK-MEL-2 11.7 µM | SK-MEL-5 14.2 µM | SNB-19 60.5 µM

NNc1nncc2[nH]nnc12
inactive: ACHN > 100 µM | CAKI-1 > 100 µM | HCT-116 > 100 µM | HL-60 48.1 µM | Hs-578T > 100 µM | IGROV-1 > 100 µM | K562 > 100 µM | MDA-MB-231 > 100 µM | MDA-N > 100 µM | NCI-H226 > 100 µM | NCI-H460 > 100 µM | OVCAR-3 > 100 µM | SF-268 > 100 µM | SF-539 > 100 µM | SK-MEL-2 > 100 µM | SK-MEL-5 > 10 µM | SNB-19 > 100 µM

c1ccc2c(c1)sc1c3cnccc3ccc21
inactive: ACHN 90.4 µM | CAKI-1 43.3 µM | HCT-116 > 100 µM | HL-60 40.6 µM | Hs-578T 29 µM | IGROV-1 25.3 µM | K562 > 100 µM | MDA-MB-231 > 100 µM | Malme-3M 66.8 µM | NCI-H226 24.2 µM | NCI-H460 24.9 µM | NCI-H522 > 100 µM | OVCAR-3 > 100 µM | SF-268 > 100 µM | SF-539 82.2 µM | SK-MEL-2 > 100 µM | SK-MEL-5 > 100 µM | SNB-19 > 100 µM

Cn1cc(C[C@@H](N)C(=O)O)c2ccccc21 [INDOXIMOD]
inactive: ACHN > 100 µM | CAKI-1 > 100 µM | HCT-116 > 100 µM | HL-60 > 100 µM | IGROV-1 > 100 µM | K562 > 100 µM | MDA-MB-231 > 100 µM | MDA-N > 100 µM | Malme-3M > 100 µM | NCI-H226 > 100 µM | NCI-H460 > 100 µM | NCI-H522 > 100 µM | OVCAR-3 > 100 µM | SF-268 > 100 µM | SF-539 > 100 µM | SK-MEL-2 > 100 µM | SNB-19 > 100 µM

COc1ccc([C@]23CCC4(OCC(C)(C)CO4)[C@H]4CON(O[C@H](O[C@@H]5CCCCC5C(C)(C)c5ccccc5)C2)[C@@H]43)cc1OC (some centres not stated)
inactive: CAKI-1 13.6 µM | HCT-116 33.3 µM | HL-60 20.6 µM | HOP-92 25.8 µM | IGROV-1 32.7 µM | K562 21.5 µM | MDA-MB-231 81.7 µM | MDA-N 28.8 µM | Malme-3M 56.6 µM | NCI-H226 58.6 µM | NCI-H460 79.4 µM | NCI-H522 27 µM | OVCAR-3 34 µM | SF-539 5.81 µM | SK-MEL-2 47.1 µM | SK-MEL-5 22.2 µM | SNB-19 61.7 µM

COc1cc(OC)c2c(c1-c1ccc(C)cc1)CC(C)N(Cc1ccccc1)[C@H]2C (some centres not stated)
inactive: ACHN 18.3 µM | CAKI-1 63.8 µM | HCT-116 20.3 µM | HL-60 12.2 µM | Hs-578T 12.7 µM | IGROV-1 80.4 µM | K562 22.1 µM | MDA-MB-231 51.3 µM | MDA-N 33.7 µM | Malme-3M 19.3 µM | NCI-H226 49.4 µM | NCI-H460 37.7 µM | NCI-H522 33.5 µM | SF-268 31.3 µM | SF-539 32.1 µM | SK-MEL-5 19.4 µM | SNB-19 67.9 µM

O=C1NC(=S)N/C1=C\c1ccc(Cl)cc1
inactive: CAKI-1 > 100 µM | HCT-116 > 100 µM | Hs-578T 50.4 µM | IGROV-1 > 100 µM | MDA-MB-231 > 100 µM | MDA-N > 100 µM | Malme-3M > 100 µM | NCI-H226 > 100 µM | NCI-H522 > 100 µM | OVCAR-3 > 100 µM | SF-268 > 100 µM | SF-539 > 100 µM | SK-MEL-2 > 100 µM | SK-MEL-5 41.8 µM | SNB-19 > 100 µM

CC(=O)N1CC[N+](C)(CCCCN2c3ccccc3Sc3cc(N=[N+]=[N-])ccc32)CC1
inactive: ACHN > 100 µM | CAKI-1 > 100 µM | HCT-116 > 100 µM | HL-60 86.5 µM | Hs-578T 75.9 µM | IGROV-1 > 100 µM | K562 49.8 µM | MDA-MB-231 > 100 µM | MDA-N > 100 µM | Malme-3M > 100 µM | NCI-H226 > 100 µM | NCI-H460 > 100 µM | NCI-H522 > 100 µM | OVCAR-3 > 100 µM | SF-268 > 100 µM | SF-539 > 100 µM | SK-MEL-2 > 100 µM | SK-MEL-5 62.8 µM | SNB-19 > 100 µM

O=[N+]([O-])C(=C1Nc2ccccc2N1)/C(Cl)=C(/Cl)N1CCOCC1
inactive: ACHN 71.8 µM | CAKI-1 > 100 µM | HCT-116 89.5 µM | Hs-578T 34.6 µM | K562 43.3 µM | MDA-MB-231 36.1 µM | MDA-N > 100 µM | Malme-3M 27.2 µM | NCI-H226 > 100 µM | NCI-H460 > 100 µM | OVCAR-3 26.7 µM | SF-268 22.6 µM | SF-539 > 100 µM | SK-MEL-2 > 100 µM | SNB-19 > 100 µM

O=C1C=CC2CCC1C2 (configuration not stated)
inactive: ACHN 40.3 µM | CAKI-1 27.5 µM | HCT-116 23.4 µM | HL-60 19.2 µM | Hs-578T 28.6 µM | IGROV-1 53.3 µM | K562 27.4 µM | MDA-MB-231 28.6 µM | MDA-N 25 µM | Malme-3M 14.6 µM | NCI-H226 39.4 µM | NCI-H460 30.6 µM | NCI-H522 17.7 µM | OVCAR-3 43.1 µM | SF-268 20.2 µM | SF-539 34.7 µM | SK-MEL-2 21.4 µM | SK-MEL-5 28.6 µM | SNB-19 28.4 µM

CC(=O)OCC1OC(n2c(C)c(C(C)=O)c(-c3ccc(Cl)cc3)c(C#N)c2=S)C(OC(C)=O)C(OC(C)=O)C1OC(C)=O (configuration not stated)
inactive: ACHN > 100 µM | HCT-116 > 100 µM | HL-60 > 100 µM | HOP-92 > 100 µM | IGROV-1 > 100 µM | K562 > 100 µM | MDA-MB-231 > 100 µM | MDA-N > 100 µM | Malme-3M > 100 µM | NCI-H226 > 100 µM | NCI-H460 > 100 µM | NCI-H522 > 100 µM | OVCAR-3 > 100 µM | SF-268 > 100 µM | SF-539 > 100 µM | SK-MEL-2 > 100 µM | SK-MEL-5 > 100 µM | SNB-19 > 100 µM

CSc1c(C#N)c(O)nc(N)c1C(=O)Nc1ccc(C)cc1
inactive: CAKI-1 32.2 µM | HCT-116 > 100 µM | HL-60 > 100 µM | Hs-578T > 100 µM | K562 > 100 µM | MDA-MB-231 > 100 µM | MDA-N > 100 µM | Malme-3M > 100 µM | NCI-H226 34.4 µM | NCI-H460 > 100 µM | NCI-H522 71.9 µM | OVCAR-3 > 100 µM | SF-268 > 100 µM | SF-539 > 100 µM | SK-MEL-2 > 100 µM | SK-MEL-5 > 100 µM | SNB-19 > 100 µM

OC(c1ccccc1)c1c(-c2ccccc2)[nH]c(-c2ccccc2)c1C(O)c1ccccc1 (configuration not stated)
inactive: ACHN 3.17 µM | CAKI-1 2.55 µM | HCT-116 2.84 µM | HL-60 2.28 µM | HOP-92 2.19 µM | Hs-578T 3.76 µM | IGROV-1 3.18 µM | K562 2.03 µM | MDA-N 2.59 µM | Malme-3M 2.59 µM | NCI-H226 2.4 µM | NCI-H460 3.06 µM | NCI-H522 3.27 µM | OVCAR-3 2.5 µM | SF-268 4.16 µM | SF-539 2.95 µM | SK-MEL-2 1.95 µM | SK-MEL-5 2.55 µM | SNB-19 3.56 µM

N#C/C(=C\c1c[nH]c2ccccc12)C(=O)c1ccc(O)c(O)c1
inactive: ACHN 27.8 µM | CAKI-1 41.5 µM | HCT-116 31.4 µM | HL-60 13.2 µM | HOP-92 32.1 µM | Hs-578T 47.2 µM | IGROV-1 24.6 µM | K562 23.2 µM | MDA-N 47.1 µM | Malme-3M > 47.9 µM | NCI-H226 47.4 µM | NCI-H460 24.5 µM | NCI-H522 13.5 µM | OVCAR-3 3.33 µM | SF-268 39.7 µM | SF-539 25.6 µM | SK-MEL-2 > 36.7 µM | SK-MEL-5 35.5 µM | SNB-19 32.4 µM
